Consider 3 compounds from patent US5668159A, “1,3,4-thiadiazoles and 1,3,4-oxadiazoles as IIb/IIIa antagonists” (The DuPont Merck Pharmaceutical Company, priority 1996, dated 1997).

Where a name gives a salt, the structure may show the parent alone.

The test system of the assay is platelet aggregation (platelet rich plasma (PRP)). Briefly: Platelet Aggregation Assay (inhibition of agonist-induced platelet aggregation in platelet rich plasma). In kind it is cell-based. Conditions: with esterase, ester prodrugs preincubated with 100 IU/mL porcine liver esterase 2 hours at 37° C., human PRP, 100 μM ADP, read-out: Platelet Aggregation Assay IC50 (with esterase). On the procedure:
Platelet Aggregation Assay: Venous blood was obtained from the arm of a healthy human donor who was drug-free and aspirin-free for at least two weeks prior to blood collection. Blood was collected into 10 mL citrated Vacutainer tubes. The blood was centrifuged for 15 minutes at 150× g at room temperature, and platelet-rich plasma (PRP) was removed. The remaining blood was centrifuged for 15 minutes at 1500× g at room temperature, and platelet-poor plasma (PPP) was removed. Samples were assayed on a aggregometer (PAP-4 Platelet Aggregation Profiler), using PPP as the blank (100% transmittance). 200 μL of PRP was added to each micro test tube, and transmittance was set to 0%. 20 μL of various agonists (ADP, collagen, arachidonate, epinephrine, thrombin) were added to each tube, and the aggregation profiles were plotted (% transmittance versus time). The results are expressed as % inhibition of agonist-inducedplatelet aggregation. For the IC50 evaluation, the test compounds were added at various concentrations prior to the activation of the platelets.
Ester prodrugs were preincubated (10^-3 M F.C.) with 100 IU/mL Porcine liver esterase (Sigma Chemical Co., St. Louis, Mo., #E-3128) for 2 hours at 37° C. Aliquots are then diluted in 0.1M Tris, p H 7.4, to the desired concentrations. Aliquots of 20 μl of the esterase pretreated prodrugs are added to 200 μl of human platelet rich plasma. Samples were placed in platelet profiler (aggregometer) for 8 minutes at 37° C., followed by the addition of 100 μM Adenosine Diphosphate, (Sigma Chemical Co., St. Louis, Mo., #A-6521), to induce platelet aggregation. Platelet aggregation was allowed to proceed for 5 minutes. Percent inhibition is calculated using percent aggregation in the presence of the test compound divided by percent aggregation of control, times 100. This value is subtracted from 100, yielding percent inhibition. Calculation of IC50 is performed on a Texas Instruments TI59 with an IC50 program.
Table A below sets forth the antiplatelet activity of representative compounds of the present invention. The indicated compounds were tested for their ability to inhibit platelet aggregation (using platelet rich plasma (PRP)). The IC50 value (the concentration of antagonist which inhibits platelet aggregation by 50% relative to a control lacking the antagonist) is shown. In Table A the IC50 values are expressed as: +++=IC50 of <10 μM; ++=IC50 of […]; +=IC50 of 50-100 μM (μM=micromolar).
Turning to `COC(=O)[C@H](Cc1ccccc1)NC(=O)CSc1nnc(-c2ccc(NC(=N)N)cc2)o1` [Example 392, Methyl N-[2-{2-(4-guanidinophenyl)-1,3,4-oxadiazol-5-ylthio}-acetyl]-(S)-phenylalanine TFA salt], the 50% inhibitory concentration (IC50) (commonly the concentration needed to halve the response being measured) is 10 to 50 µM.
On to `CCOC(=O)[C@H](Cc1ccccc1)NC(=O)CSc1nnc(-c2ccc(C(=N)N)cc2)o1` [Example 399, Ethyl N-[2-{2-(4-amidinophenyl)-1,3,4-oxadiazol-5-ylthio}-acetyl]-(S)-phenylalanine HCl salt], for which the IC50 was 10 to 50 µM.
As for `CCCCOC(=O)NC[C@H](NC(=O)CSc1nnc(-c2ccc(C(=N)N)cc2)s1)C(=O)OC` [Example 440, Methyl N^2-[2-{2-(4-amidinophenyl)-1,3,4-thiodiazol-5-ylthio}-acetyl]-N^3-(n-butyloxycarbonyl)-2,3-(S)-diaminopropionate HCl salt], the figure is below 10 µM.
